ChEMBL document CHEMBL1131844, “Substituted indoles as potent and orally active 5-lipoxygenase activating protein (FLAP) inhibitors” (Bioorg Med Chem Lett, 1999)

Assays:
Rattus norvegicus [1] = experiment: In vivo inhibitory activity against LTB4 biosynthesis by rat pleurisy model (3h pre treatment time periods); type: functional
Rattus norvegicus [2] = experiment: Compound was evaluated in vivo for its functional activity(in percent) in a hyperreactive rat model of dyspnea; parameters: concentration or dose not given beside the values
[3] = plasma level at 2 hr after administration of the compound; type: ADME, organism-based; settings: rat
[4] = target: T1, Arachidonate 5-lipoxygenase-activating protein (Homo sapiens, UniProt P20292); experiment: Measuring the affinity of leukotriene synthesis inhibitor for 5-Lipoxygenase activating protein (FLAP) by using [125I]L-691831 as radioligand.
T1 sequence (P20292 whole entry): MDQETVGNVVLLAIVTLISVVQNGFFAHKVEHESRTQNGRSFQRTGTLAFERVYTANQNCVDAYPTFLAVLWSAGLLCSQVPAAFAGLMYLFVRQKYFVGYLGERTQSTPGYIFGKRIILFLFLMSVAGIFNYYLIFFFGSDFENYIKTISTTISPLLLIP

Homo sapiens [5] = organism: Homo sapiens; experiment: In vitro inhibition of LTB4 biosynthesis in Ca++ ionophore activated human polymorphonuclear (HPMN) leukocytes.; type: functional
[6] = Bioavailability in rat; type: ADME, organism-based; settings: in vivo
Homo sapiens [7] = organism: Homo sapiens; experiment: The drug dependent inhibition of LTB4 biosynthesis in human whole blood (HWB) activated with the ionophore A-23187; type: functional, organism-based
[8] = target: T1, Arachidonate 5-lipoxygenase-activating protein; experiment: Measuring the affinity of leukotriene synthesis inhibitor for 5-lipoxygenase activating protein by using [125I]L-691831 as radioligand.
Rattus norvegicus [9] = experiment: In vivo inhibitory activity against LTB4 biosynthesis by rat pleurisy model (v3h pre treatment time periods); type: functional
Rattus norvegicus [10] = experiment: In vivo inhibitory activity against LTB4 biosynthesis by rat pleurisy model (3 pre treatment time periods); type: functional
Rattus norvegicus [11] = experiment: In vivo inhibitory activity against LTB4 biosynthesis by rat pleurisy model (6h pre treatment time periods); type: functional
Rattus norvegicus [12] = experiment: In vivo inhibitory activity against LTB4 biosynthesis by rat pleurisy model (1 pre treatment time periods); type: functional
[13] = Plasma level at 2 hr after administration of the compound; type: ADME, organism-based; settings: rat
Canis familiaris [14] = experiment: Inhibition of ex vivo leukotriene B4 (LTB4) in whole blood of A-23,187-challenged dog after intravenous infusion of 2.5 ug/kg/min; type: functional; settings: Canis lupus familiaris
Rattus norvegicus [15] = experiment: In vivo inhibitory activity against LTB4 biosynthesis by rat pleurisy model (2h pre treatment time period); type: functional
Rattus norvegicus [16] = experiment: In vivo inhibitory activity against LTB4 biosynthesis by rat pleurisy model (6 pre treatment time periods); type: functional
Canis familiaris [17] = experiment: Inhibition of ex vivo urinary leukotriene E4 (LTE4) excretion from A-23,187-challenged dog after intravenous infusion of 2.5 ug/kg/min; type: functional; settings: Canis lupus familiaris, Urine

Row | SMILES | IC50 (Homo sapiens [5]; Homo sapiens) [nM] | IC50 (Homo sapiens [7]; Homo sapiens, Blood) [nM] | IC50 [8] [nM] | other results
1 | C[C@@H](COc1ccc2c(c1)c(SC(C)(C)C)c(CC(C)(C)C(=O)O)n2Cc1ccc(Cl)cc1)c1ccccn1 | 2 | 280 |  | ED50 (Rattus norvegicus [1]): 0.16 mg/kg; Functional activity in dyspnea model (Rattus norvegicus [2]): 64%; concentration at 2 h [3]: 13 µM; IC50 [4]: 6 nM; bioavailability [6]: 60%
2 | CC(C)(C)Sc1c(CC(C)(C)C(=O)O)n(Cc2ccc(Cl)cc2)c2ccc(OCc3cscn3)cc12 | 3 | 270 | 5 | ED50 (Rattus norvegicus [9]): 0.12 mg/kg; Functional activity in dyspnea model (Rattus norvegicus [2]): 61%; concentration at 2 h [3]: 8 µM; bioavailability [6]: 98%
3 | CC(C)(C)Sc1c(CC(C)(C)C(=O)O)n(Cc2ccc(Cl)cc2)c2ccc(OCc3nc4cc(C(F)(F)F)ccc4s3)cc12 | 22 | > 3000 | 186 | 
4 | CC(C)(C)Sc1c(CC(C)(C)C(=O)O)n(Cc2ccc(Cl)cc2)c2ccc(COCc3ccc4ccccc4n3)cc12 | > 18 | > 3000 | 26 | 
5 | CC(C)(C)Sc1c(CC(C)(C)C(=O)O)n(Cc2ccc(Cl)cc2)c2ccc(OCc3cc4ccccc4cn3)cc12 | 3 | > 3000 | 10 | 
6 | CC(C)(C)Sc1c(CC(C)(C)C(=O)O)n(Cc2ccc(Cl)cc2)c2ccc(OCc3cnc4ccccc4c3)cc12 |  |  | 48 | 
7 | CC(C)(C)Sc1c(CC(C)(C)C(=O)O)n(Cc2ccc(Cl)cc2)c2c(OCc3ccc4ccccc4n3)cccc12 |  |  | 1950 | 
8 | COc1ccc2nc(COc3ccc4c(c3)c(SC(C)(C)C)c(CC(C)(C)C(=O)O)n4Cc3ccc(Cl)cc3)sc2c1 | 8 | 670 | 73 | 
9 | C[C@H](COc1ccc2c(c1)c(SC(C)(C)C)c(CC(C)(C)C(=O)O)n2Cc1ccc(Cl)cc1)c1ccccn1 | 3 | 470 | 12 | 
10 | CC(C)(C)Sc1c(CC(C)(C)C(=O)O)n(Cc2ccc(Cl)cc2)c2ccc(OCc3nc4ccccc4s3)cc12 | 3 | 260 | 2 | Functional activity in dyspnea model (Rattus norvegicus [2]): 45%; ED50 (Rattus norvegicus [10]): 0.85 mg/kg; concentration at 2 h [3]: 6 µM; bioavailability [6]: 81%
11 | CC(C)(C)Sc1c(CC(C)(C)C(=O)O)n(Cc2ccc(Cl)cc2)c2ccc(OCc3ccccn3)cc12 | 2 | 130 | 3 | ED50 (Rattus norvegicus [1]): 0.3 mg/kg; Functional activity in dyspnea model (Rattus norvegicus [2]): 77%; ED50 (Rattus norvegicus [11]): 0.09 mg/kg; concentration at 2 h [3]: 9 µM; bioavailability [6]: 48%
12 | CC(C)(C)Sc1c(CC(C)(C)C(=O)O)n(Cc2ccc(Cl)cc2)c2ccc(OCc3ccncc3)cc12 | 6 | > 3000 | 48 | 
13 | CC(C)(C)Sc1c(CC(C)(C)C(=O)O)n(Cc2ccc(Cl)cc2)c2ccc(OCc3cccc(Cl)n3)cc12 | 3 | 410 | 8 | Functional activity in dyspnea model (Rattus norvegicus [2]): 34%; concentration at 2 h [3]: 3.5 µM; bioavailability [6]: 37%
14 | CC(C)(C)Sc1c(CC(C)(C)C(=O)O)n(Cc2ccc(Cl)cc2)c2ccc(OCc3cccnc3)cc12 | 8 | > 3000 | 59 | 
15 | CC(C)(C)Sc1c(CC(C)(C)C(=O)O)n(Cc2ccc(Cl)cc2)c2ccc(OCc3ccc4cnccc4n3)cc12 | 3 | 980 | 2 | 
16 | CC(C)(C)Sc1c(CC(C)(C)C(=O)O)n(Cc2ccc(Cl)cc2)c2cc(OCc3ccc4ccccc4n3)ccc12 |  |  | 428 | 
17 | CC(C)(C)Sc1c(CC(C)(C)C(=O)O)n(Cc2ccc(Cl)cc2)c2cccc(OCc3ccc4ccccc4n3)c12 |  |  | 85 | 
18 | CC(C)(C)Sc1c(CC(C)(C)C(=O)O)n(Cc2ccc(Cl)cc2)c2ccc(OCc3ccc4cc(F)ccc4n3)cc12 | 2 | 880 | 2 | 

Row | SMILES | IC50 (Homo sapiens [5]; Homo sapiens) [nM] | IC50 (Homo sapiens [7]; Homo sapiens, Blood) [nM] | IC50 [8] [nM] | other results
19 | CC(C)(C)Sc1c(CC(C)(C)C(=O)O)n(Cc2ccc(Cl)cc2)c2ccc(OCc3ccc4c(n3)CCCC4)cc12 | 3 | 2890 | 8 | 
20 | Cc1nc2ccc(COc3ccc4c(c3)c(SC(C)(C)C)c(CC(C)(C)C(=O)O)n4Cc3ccc(Cl)cc3)cc2s1 | 6 | > 3000 | 40 | 
21 | CC(C)(C)Sc1c(CC(C)(C)C(=O)O)n(Cc2ccc(Cl)cc2)c2ccc(OCc3nc4ccccc4o3)cc12 | < 7 | 2500 | 5 | 
22 | CC(C)(C)Sc1c(CC(C)(C)C(=O)O)n(Cc2ccc(Cl)cc2)c2ccc(OCc3cnccn3)cc12 | 4 | 400 | 7 | 
23 | CC(C)(C)Sc1c(CC(C)(C)C(=O)O)n(Cc2ccc(Cl)cc2)c2ccc(OCc3ccc4cc(F)c(F)cc4n3)cc12 | 7 | > 3000 | 14 | 
24 | CC(C)(C)Sc1c(CC(C)(C)C(=O)O)n(Cc2ccc(Cl)cc2)c2ccc(/C=C/c3ccc4ccccc4n3)cc12 | 12 | > 3000 | 11 | 
25 | CC(C)(C)Sc1c(CC(C)(C)C(=O)O)n(Cc2ccc(Cl)cc2)c2ccc(OCc3ccnc4ccccc34)cc12 |  |  | 62 | 
26 | CC(C)c1csc(COc2ccc3c(c2)c(SC(C)(C)C)c(CC(C)(C)C(=O)O)n3Cc2ccc(Cl)cc2)n1 | 3 | > 3000 | 13 | 
27 | CC(C)(C)Sc1c(CC(C)(C)C(=O)O)n(Cc2ccc(Cl)cc2)c2ccc(OCc3cccs3)cc12 | 4 | > 3000 | 70 | 
28 | CC(COc1ccc2c(c1)c(SC(C)(C)C)c(CC(C)(C)C(=O)O)n2Cc1ccc(Cl)cc1)c1ccccn1 (stereo unspecified) | 4 | 270 | 8 | 
29 | CC(C)(C)Sc1c(CC(C)(C)C(=O)O)n(Cc2ccc(Cl)cc2)c2ccc(OCc3ccc4cccnc4n3)cc12 | 6 | > 3000 | 2 | 
30 | CCCC(Oc1ccc2c(c1)c(SC(C)(C)C)c(CC(C)(C)C(=O)O)n2Cc1ccc(Cl)cc1)c1ccc2ccccc2n1 (stereo unspecified) | > 52 | > 3000 | 350 | 
31 | CC(C)(C)Sc1c(CC(C)(C)C(=O)O)n(Cc2ccc(Cl)cc2)c2ccc(CCc3ccc4ccccc4n3)cc12 | 4 | > 3000 | 16 | 
32 | Cc1nc(COc2ccc3c(c2)c(SC(C)(C)C)c(CC(C)(C)C(=O)O)n3Cc2ccc(Cl)cc2)cs1 | 2 | 130 | 3 | ED50 (Rattus norvegicus [1]): 0.15 mg/kg; Functional activity in dyspnea model (Rattus norvegicus [2]): 48%; concentration at 2 h [3]: 8 µM; bioavailability [6]: 98%
33 | CC(Oc1ccc2c(c1)c(SC(C)(C)C)c(CC(C)(C)C(=O)O)n2Cc1ccc(Cl)cc1)c1ccc2ccccc2n1 (racemic) |  |  | 16 | IC50 (Homo sapiens [5]): 9 nM; IC50 (Homo sapiens [7]): 803 nM
34 | CC(Oc1ccc2c(c1)c(SC(C)(C)C)c(CC(C)(C)C(=O)O)n2Cc1ccc(Cl)cc1)c1ccc2ccccc2n1 (single isomer, unassigned; (-)) |  |  | 7 | Functional activity in dyspnea model (Rattus norvegicus [2]): 45%; concentration at 2 h [3]: 4.2 µM; ED50 (Rattus norvegicus [12]): 1 mg/kg; IC50 (Homo sapiens [5]): 5 nM; bioavailability [6]: 48%; IC50 (Homo sapiens [7]): 362 nM
35 | CC(Oc1ccc2c(c1)c(SC(C)(C)C)c(CC(C)(C)C(=O)O)n2Cc1ccc(Cl)cc1)c1ccc2ccccc2n1 (stereo in doubt; 6) |  |  | 116 | IC50 (Homo sapiens [5]): 32 nM; IC50 (Homo sapiens [7]): > 3000 nM
36 | CC(C)(C)Sc1c(CC(C)(C)C(=O)O)n(Cc2ccc(Cl)cc2)c2ccc(OCc3ccc4ccccc4n3)cc12 [QUIFLAPON] | 4 |  |  | concentration at 2 h [13]: 2.5 µM; inhibition in vivo at 2.5 µg/kg/min (Canis familiaris [14]): 94%; ED50 (Rattus norvegicus [15]): 0.51 mg/kg; Functional activity in dyspnea model (Rattus norvegicus [2]): 51%; ED50 (Rattus norvegicus [16]): 0.15 mg/kg; inhibition in vivo at 2.5 µg/kg/min (Canis familiaris [17]): 71%; bioavailability [6]: 24%
